Experimental data as given in ChEMBL document CHEMBL3091409, “Potent P2Y1 urea antagonists bearing various cyclic amine scaffolds” (Bioorg Med Chem Lett, 2013).
≈ marks a conversion by molar mass, not a printed value.

Assays:
P2Y purinoceptor 1 = P2Y purinoceptor 1 (Homo sapiens, UniProt P47900); assay: Displacement of [beta-33P]-2MeS-ADP from human P2Y1 receptor transfected in HEK293 cells after 1 hr by scintillation counting method; type: cell-based
Platelet = assay: Inhibition of ADP-induced platelet aggregation in human platelet rich plasma; type: functional
[1] = Metabolic stability in rat liver microsomes assessed as compound remaining after 10 mins; type: ADME; conditions: read-out: Stability
[2] = Aqueous solubility of the compound in crystalline form in […] phosphate buffer at pH 6.5; type: physicochemical
[3] = molecular target: Voltage-gated inwardly rectifying potassium channel KCNH2 (Homo sapiens, UniProt Q12809); assay: Inhibition of human ERG flux
[4] = Oral bioavailability in rat at 5 mg/kg; type: ADME, organism-based; conditions: in vivo
[5] = molecular target: D(2) dopamine receptor (Homo sapiens) (UniProt P14416); assay: Inhibition of D2 receptor (unknown origin); conditions: concentration not given here
[6] = Permeability of the compound by PAMPA; type: ADME; conditions: read-out: permeability
[7] = Aqueous solubility of the compound in partially crystalline form in […] phosphate buffer at pH 6.5; type: physicochemical
[8] = molecular target: 5-hydroxytryptamine receptor 2A (Homo sapiens) (UniProt P28223); assay: Inhibition of 5-HT2A receptor (unknown origin); conditions: concentration not given here
[9] = Plasma protein binding in human plasma; type: ADME, cell-free; conditions: read-out: PPB (converted)
[10] = molecular target: Sodium-dependent noradrenaline transporter (Homo sapiens) (UniProt P23975); assay: Inhibition of NET (unknown origin); conditions: concentration not given here
[11] = Clearance in rat at 2 mg/kg, iv and 5 mg/kg, po; type: ADME, organism-based; conditions: in vivo
[12] = Half life in rat at 2 mg/kg, iv and 5 mg/kg, po; type: ADME, organism-based; conditions: in vivo
[13] = Volume of distribution at steady state in rat at 2 mg/kg, iv and 5 mg/kg, po; type: ADME, organism-based; conditions: in vivo, read-out: Vdss
[14] = Permeability from apical to basolateral side of human Caco2 cells; type: ADME, cell-based; conditions: Caco-2, read-out: permeability
[15] = Aqueous solubility of the compound in amorphous form in […] phosphate buffer at pH 6.5; type: physicochemical

Voltage-gated inwardly rectifying potassium channel KCNH2, sequence (Q12809 whole entry): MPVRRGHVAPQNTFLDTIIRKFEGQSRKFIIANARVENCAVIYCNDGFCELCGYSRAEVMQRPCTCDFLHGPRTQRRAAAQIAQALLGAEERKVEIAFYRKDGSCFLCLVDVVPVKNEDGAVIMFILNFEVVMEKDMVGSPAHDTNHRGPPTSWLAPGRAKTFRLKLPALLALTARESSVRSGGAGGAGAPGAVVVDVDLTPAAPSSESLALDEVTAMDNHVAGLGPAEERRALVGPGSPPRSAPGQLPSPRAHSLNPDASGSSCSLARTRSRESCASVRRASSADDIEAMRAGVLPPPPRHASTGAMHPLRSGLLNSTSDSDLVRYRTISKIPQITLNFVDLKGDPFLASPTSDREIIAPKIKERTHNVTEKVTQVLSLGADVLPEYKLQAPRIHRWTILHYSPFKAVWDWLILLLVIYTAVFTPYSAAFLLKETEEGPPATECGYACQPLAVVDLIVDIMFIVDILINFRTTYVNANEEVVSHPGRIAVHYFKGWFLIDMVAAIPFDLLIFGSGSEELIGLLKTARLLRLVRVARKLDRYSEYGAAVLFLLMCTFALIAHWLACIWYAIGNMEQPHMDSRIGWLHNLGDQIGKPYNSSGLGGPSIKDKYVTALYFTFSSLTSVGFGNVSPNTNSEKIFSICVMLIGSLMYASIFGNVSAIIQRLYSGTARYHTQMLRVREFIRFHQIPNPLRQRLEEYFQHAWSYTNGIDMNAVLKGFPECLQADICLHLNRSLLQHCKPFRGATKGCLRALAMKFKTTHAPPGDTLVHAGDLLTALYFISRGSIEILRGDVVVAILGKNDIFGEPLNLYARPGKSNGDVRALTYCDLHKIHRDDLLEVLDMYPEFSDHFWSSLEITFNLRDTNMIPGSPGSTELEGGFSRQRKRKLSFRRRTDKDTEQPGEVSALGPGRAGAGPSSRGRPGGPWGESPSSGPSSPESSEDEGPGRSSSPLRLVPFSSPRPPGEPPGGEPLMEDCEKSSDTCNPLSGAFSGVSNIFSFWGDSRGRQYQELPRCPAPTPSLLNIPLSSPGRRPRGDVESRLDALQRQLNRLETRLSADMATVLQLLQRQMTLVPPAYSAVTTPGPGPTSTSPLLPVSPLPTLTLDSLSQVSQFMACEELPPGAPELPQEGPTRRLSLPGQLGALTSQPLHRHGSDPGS
P2Y purinoceptor 1, sequence (P47900 whole entry): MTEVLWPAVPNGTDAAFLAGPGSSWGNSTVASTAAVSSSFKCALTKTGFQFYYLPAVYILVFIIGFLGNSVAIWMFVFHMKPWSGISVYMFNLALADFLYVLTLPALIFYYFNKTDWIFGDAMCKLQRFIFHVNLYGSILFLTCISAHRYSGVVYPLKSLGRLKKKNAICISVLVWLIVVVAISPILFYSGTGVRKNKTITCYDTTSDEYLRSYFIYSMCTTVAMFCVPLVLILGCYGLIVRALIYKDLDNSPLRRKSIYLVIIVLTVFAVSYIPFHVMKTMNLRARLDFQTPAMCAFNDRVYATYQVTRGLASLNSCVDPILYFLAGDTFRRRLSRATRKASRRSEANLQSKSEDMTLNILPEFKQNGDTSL
Sodium-dependent noradrenaline transporter (Homo sapiens), sequence (P23975 whole entry): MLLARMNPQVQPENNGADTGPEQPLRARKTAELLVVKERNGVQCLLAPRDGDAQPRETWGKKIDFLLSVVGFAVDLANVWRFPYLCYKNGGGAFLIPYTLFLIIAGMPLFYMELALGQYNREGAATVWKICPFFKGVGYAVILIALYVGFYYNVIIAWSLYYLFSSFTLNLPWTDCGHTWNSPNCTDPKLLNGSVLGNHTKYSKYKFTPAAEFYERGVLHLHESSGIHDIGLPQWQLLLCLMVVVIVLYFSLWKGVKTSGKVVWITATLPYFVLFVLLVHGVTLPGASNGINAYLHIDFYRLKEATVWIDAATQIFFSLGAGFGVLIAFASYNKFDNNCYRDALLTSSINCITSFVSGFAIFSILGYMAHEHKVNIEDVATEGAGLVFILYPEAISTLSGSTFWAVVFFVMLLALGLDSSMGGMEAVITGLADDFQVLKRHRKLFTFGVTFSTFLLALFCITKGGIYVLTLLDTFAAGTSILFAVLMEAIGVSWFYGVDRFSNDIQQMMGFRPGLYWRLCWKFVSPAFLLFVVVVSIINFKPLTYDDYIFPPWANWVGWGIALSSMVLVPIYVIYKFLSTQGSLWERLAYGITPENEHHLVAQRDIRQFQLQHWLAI
D(2) dopamine receptor (Homo sapiens), sequence (P14416 whole entry): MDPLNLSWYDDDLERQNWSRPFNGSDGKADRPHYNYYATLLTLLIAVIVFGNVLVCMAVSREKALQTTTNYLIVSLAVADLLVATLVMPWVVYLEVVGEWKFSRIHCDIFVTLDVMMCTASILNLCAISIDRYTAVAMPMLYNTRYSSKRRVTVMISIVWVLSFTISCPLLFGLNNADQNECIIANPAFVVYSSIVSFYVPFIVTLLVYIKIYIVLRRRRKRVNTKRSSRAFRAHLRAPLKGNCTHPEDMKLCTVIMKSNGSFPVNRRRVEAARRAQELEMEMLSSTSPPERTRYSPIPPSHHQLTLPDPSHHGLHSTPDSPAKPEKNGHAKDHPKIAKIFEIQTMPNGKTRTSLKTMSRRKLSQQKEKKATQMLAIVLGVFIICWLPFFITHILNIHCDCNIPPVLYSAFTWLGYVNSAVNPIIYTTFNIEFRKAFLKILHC
5-hydroxytryptamine receptor 2A (Homo sapiens), sequence (P28223 whole entry): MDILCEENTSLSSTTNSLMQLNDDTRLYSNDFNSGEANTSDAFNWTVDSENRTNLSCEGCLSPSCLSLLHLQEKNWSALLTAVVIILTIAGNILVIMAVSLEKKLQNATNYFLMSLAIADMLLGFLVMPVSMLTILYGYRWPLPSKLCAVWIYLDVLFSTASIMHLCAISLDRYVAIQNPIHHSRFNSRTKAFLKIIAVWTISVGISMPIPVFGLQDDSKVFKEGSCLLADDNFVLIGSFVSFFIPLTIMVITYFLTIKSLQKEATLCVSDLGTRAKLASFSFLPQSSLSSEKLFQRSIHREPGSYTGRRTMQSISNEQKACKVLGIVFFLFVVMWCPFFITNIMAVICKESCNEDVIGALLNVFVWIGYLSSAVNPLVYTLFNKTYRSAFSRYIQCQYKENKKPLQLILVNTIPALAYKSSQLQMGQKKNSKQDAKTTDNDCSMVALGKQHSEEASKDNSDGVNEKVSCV

| Ki (P2Y purinoceptor 1) [nM] | IC50 (Platelet) [nM] | Compound | also measured |
| --- | --- | --- | --- |
| 290 |  | O=C(Nc1ccc(OC(F)(F)F)cc1)Nc1cccnc1Oc1cccc2c1CCN(CCc1ccccc1)C2 |  |
| 3400 |  | O=C(Nc1ccc(OC(F)(F)F)cc1)Nc1cccnc1Oc1cccc2c1CCN(Cc1ccc(O)cc1)C2 |  |
| 55 |  | O=C(Nc1ccc(OC(F)(F)F)cc1)Nc1cccnc1Oc1cccc2c1CCN(Cc1ccccc1)C2 |  |
| 2200 |  | O=C(Nc1ccc(OC(F)(F)F)cc1)Nc1cccnc1Oc1cccc2c1CCN(Cc1cccc(O)c1)C2 |  |
| 68 | > 10000 | CC(C)CN1Cc2cccc(Oc3ncccc3NC(=O)Nc3ccc(OC(F)(F)F)cc3)c2C1 |  |
| 190 |  | CC(C)(C)CCN1CCc2c(cccc2Oc2ncccc2NC(=O)Nc2ccc(OC(F)(F)F)cc2)C1 |  |
| 1700 |  | CCN1CCc2c(cccc2Oc2ncccc2NC(=O)Nc2ccc(OC(F)(F)F)cc2)C1 |  |
| 11 | 3100 | CC(C)(C)CN1CCc2c(cccc2Oc2ncccc2NC(=O)Nc2ccc(OC(F)(F)F)cc2)C1 | remaining at 10 min [1]: 27%; solubility [2]: 3 µg/mL (≈ 5.83 µM) |
| 3000 |  | O=C(Nc1ccc(OC(F)(F)F)cc1)Nc1cccnc1Oc1cccc2c1CCNC2 |  |
| 260 |  | O=C(Nc1ccc(OC(F)(F)F)cc1)Nc1cccnc1Oc1cccc2c1CCN(Cc1ccccc1O)C2 |  |
| 1100 |  | O=C(Nc1ccc(OC(F)(F)F)cc1)Nc1cccnc1Oc1cccc2c1CCN(Cc1ccccn1)C2 |  |
| 150 | 7600 | CC(C)CN1CCC(c2ccccc2Oc2ncccc2NC(=O)Nc2ccc(OC(F)(F)F)cc2)CC1 | IC50 [3]: 6000 nM |
| 3700 |  | CN1Cc2cccc(Oc3ncccc3NC(=O)Nc3ccc(OC(F)(F)F)cc3)c2C1 |  |
| 29 | > 10000 | CC(C)(C)CN1Cc2cccc(Oc3ncccc3NC(=O)Nc3ccc(OC(F)(F)F)cc3)c2C1 |  |
| 16 | 2400 | CC(C)(C)CN1CCC(c2ccccc2Oc2ncccc2NC(=O)Nc2ccc(OC(F)(F)F)cc2)CC1 | IC50 [3]: 4600 nM; bioavailability [4]: 89%; inhibition [5]: > 50%; Papp [6]: 28.6 ×10⁻⁶ cm/s; solubility [7]: 105 µg/mL (≈ 194 µM); remaining at 10 min [1]: 96%; inhibition [8]: > 50%; fraction unbound [9]: 0.001; inhibition [10]: > 50%; clearance [11]: 18 mL/min/kg; half-life [12]: 11 h; Vd [13]: 14 L/kg |
| 57 | 1200 | CN1Cc2cccc(Oc3ncccc3NC(=O)Nc3ccc(OC(F)(F)F)cc3)c2C1C(C)(C)C (stereo not given) | IC50 [3]: 7200 nM; Papp [6]: 78.4 ×10⁻⁶ cm/s; Papp A→B [14]: < 1.5 ×10⁻⁶ cm/s; remaining at 10 min [1]: 6%; solubility [15]: 270 µg/mL (≈ 539 µM); fraction unbound [9]: 0.003 |
| 620 |  | CCCN1CCc2c(cccc2Oc2ncccc2NC(=O)Nc2ccc(OC(F)(F)F)cc2)C1 |  |
| 1200 |  | O=C(Nc1ccc(OC(F)(F)F)cc1)Nc1cccnc1Oc1cccc2c1CCN(Cc1cccnc1)C2 |  |
| 560 |  | CC(C)N1CCc2c(cccc2Oc2ncccc2NC(=O)Nc2ccc(OC(F)(F)F)cc2)C1 |  |
| 98 | 12700 | O=C(Nc1ccc(OC(F)(F)F)cc1)Nc1cccnc1Oc1ccccc1C1CCN(Cc2ccccc2)CC1 |  |
| 1040 |  | O=C(Nc1ccc(OC(F)(F)F)cc1)Nc1cccnc1Oc1cccc2c1CCN(Cc1ccncc1)C2 |  |
| 60 |  | CC(C)CN1CCc2c(cccc2Oc2ncccc2NC(=O)Nc2ccc(OC(F)(F)F)cc2)C1 |  |
